Experimental data published in PMC8319832, “Fine-Tuning of Alkaline Residues on the Hydrophilic Face Provides a Non-toxic Cationic α-Helical Antimicrobial Peptide Against Antibiotic-Resistant ESKAPE Pathogens” (Frontiers in Microbiology, 2021).

Legend:
Assay in all cases: Drug sensitivity, Kirby-Bauer test
Design in all cases: key: 'S' represents susceptibility; 'I' represents intermediate efficacy; 'R' represents resistance
P. aeruginosa 9042 = format: cell-based, Pseudomonas aeruginosa; settings: clinical isolate
Description: (§1) The bacteria used in this study included the standard strains S. aureus ATCC29213 and ATCC25923, E. faecalis ATCC29212, E. coli ATCC25922 and ATCC35218, A. baumannii ATCC19606, K. pneumoniae ATCC700603 and P. aeruginosa ATCC27853, these strains were purchased from the China Center of Type Culture Collection (CCTCC). The antimicrobial activities of the peptides were also determined against clinically isolated strains S. aureus 4188, 9124, 1176, S. epidermidis 9092, 6943, 888, E. faecalis 901, E. faecium 898, E. coli 2678, 2687, K. pneumoniae 9126, P. aeruginosa 9014, 9042, and A. baumannii 906, 13012, 13079, 9068, these strains were acquired from Taihe Hospital, Hubei University of Medicine. The drug sensitivities of the clinical isolates to the antibiotics were determined by the Kirby-Bauer test ([Chinnambedu et al., 2020]).

P. aeruginosa 9014 = format: cell-based, Pseudomonas aeruginosa; settings: clinical isolate, CRE, MDR
Description: as §1

K. pneumoniae 9126 = format: cell-based, Klebsiella pneumoniae; settings: clinical isolate, CRE
Description: as §1

E. coli 2678 = format: cell-based, Escherichia coli; settings: clinical isolate, ESBL
Description: as §1

E. coli 2687 = format: cell-based, Escherichia coli; settings: clinical isolate, ESBL
Description: as §1

A. baumannii 13012 = format: cell-based, Acinetobacter baumannii; settings: clinical isolate, CRE, MDR
Description: as §1

A. baumannii 13079 = format: cell-based, Acinetobacter baumannii; settings: clinical isolate, CRE, MDR
Description: as §1

A. baumannii 906 = format: cell-based, Acinetobacter baumannii; settings: clinical isolate, CRE, MDR
Description: as §1

A. baumannii 9068 = format: cell-based, Acinetobacter baumannii; settings: clinical isolate, CRE, MDR
Description: as §1

S. aureus 1176 = format: cell-based, Staphylococcus aureus; settings: clinical isolate
Description: as §1

S. aureus 9124 = format: cell-based, Staphylococcus aureus; settings: clinical isolate, MRSA
Description: as §1

S. aureus 4188 = format: cell-based, Staphylococcus aureus; settings: clinical isolate
Description: as §1

S. epidermidis 888 = format: cell-based; settings: clinical isolate
Description: as §1

S. epidermidis 9092 = format: cell-based; settings: clinical isolate, MRSE
Description: as §1

S. epidermidis 6943 = format: cell-based; settings: clinical isolate, MRSE
Description: as §1

E. faecium 898 = format: cell-based, Enterococcus faecium; settings: clinical isolate
Description: as §1

In the case of NCC[C@H](O)C(=O)N[C@@H]1C[C@H](N)[C@@H](O[C@H]2O[C@H](CN)[C@@H](O)[C@H](O)[C@H]2O)[C@H](O)[C@H]1O[C@H]1O[C@H](CO)[C@@H](O)[C@H](N)[C@H]1O [Amikacin], the “Drug sensitivity of the isolate to the antibiotic” value (“Drug sensitivity of the isolate” for short) (P. aeruginosa 9042) is reported as “S”, the “Drug sensitivity of the isolate” value (P. aeruginosa 9014) is reported as “S” and the “Drug sensitivity of the isolate” value (K. pneumoniae 9126) is reported as “S”. The “Drug sensitivity of the isolate” value (E. coli 2678) was “S”, the “Drug sensitivity of the isolate” value (E. coli 2687) was “S” and the “Drug sensitivity of the isolate” value (A. baumannii 13012) was “R”. The “Drug sensitivity of the isolate” value (A. baumannii 13079) was “R”, the “Drug sensitivity of the isolate” value (A. baumannii 906) was “R” and the “Drug sensitivity of the isolate” value (A. baumannii 9068) was “R”.
With CC1(C)S[C@@H]2[C@H](NC(=O)[C@H](N)c3ccccc3)C(=O)N2[C@H]1C(=O)O [Ampicillin] the “Drug sensitivity of the isolate” value (P. aeruginosa 9042) was “R”, the “Drug sensitivity of the isolate” value (P. aeruginosa 9014) was “R” and the “Drug sensitivity of the isolate” value (K. pneumoniae 9126) was “R”. For the same molecule, the “Drug sensitivity of the isolate” value (E. coli 2678) was “R” and the “Drug sensitivity of the isolate” value (E. coli 2687) was “R”.
With CO[C@@]1(NC(=O)Cc2cccs2)C(=O)N2C(C(=O)O)=C(COC(N)=O)CS[C@@H]21 [Cefoxitin] the “Drug sensitivity of the isolate” value (S. aureus 1176) was “R”, the “Drug sensitivity of the isolate” value (S. aureus 9124) was “R” and the “Drug sensitivity of the isolate” value (S. aureus 4188) was “R”. The “Drug sensitivity of the isolate” value (S. epidermidis 888) was “I”, the “Drug sensitivity of the isolate” value (S. epidermidis 9092) was “R” and the “Drug sensitivity of the isolate” value (S. epidermidis 6943) was “R”.
CC(C)(O/N=C(\C(=O)N[C@@H]1C(=O)N2C(C(=O)[O-])=C(C[n+]3ccccc3)CS[C@H]12)c1csc(N)n1)C(=O)O [Ceftazidime] was tested, and the “Drug sensitivity of the isolate” value (P. aeruginosa 9042) was “S”, the “Drug sensitivity of the isolate” value (P. aeruginosa 9014) was “R” and the “Drug sensitivity of the isolate” value (K. pneumoniae 9126) was “R”. For the same molecule, the “Drug sensitivity of the isolate” value (E. coli 2678) was “S”, the “Drug sensitivity of the isolate” value (E. coli 2687) was “R” and the “Drug sensitivity of the isolate” value (A. baumannii 13012) was “R”. The “Drug sensitivity of the isolate” value (A. baumannii 13079) was “R”, the “Drug sensitivity of the isolate” value (A. baumannii 906) was “R” and the “Drug sensitivity of the isolate” value (A. baumannii 9068) was “R”.
For C[C@@H](O)[C@H]1C(=O)N2C(C(=O)O)=C(SCCN=CN)C[C@H]12 [Imipenem], the “Drug sensitivity of the isolate” value (P. aeruginosa 9042) was “R”, the “Drug sensitivity of the isolate” value (P. aeruginosa 9014) was “R” and the “Drug sensitivity of the isolate” value (K. pneumoniae 9126) was “R”. The “Drug sensitivity of the isolate” value (E. coli 2678) was “S”, the “Drug sensitivity of the isolate” value (E. coli 2687) was “S” and the “Drug sensitivity of the isolate” value (A. baumannii 13012) was “R”. The “Drug sensitivity of the isolate” value (A. baumannii 13079) was “R”, the “Drug sensitivity of the isolate” value (A. baumannii 906) was “R” and the “Drug sensitivity of the isolate” value (A. baumannii 9068) was “R”.
With C[C@H]1COc2c(N3CCN(C)CC3)c(F)cc3c(=O)c(C(=O)O)cn1c23 [Levofloxacin] the “Drug sensitivity of the isolate” value (P. aeruginosa 9042) was “R”, the “Drug sensitivity of the isolate” value (P. aeruginosa 9014) was “R” and the “Drug sensitivity of the isolate” value (K. pneumoniae 9126) was “S”. The “Drug sensitivity of the isolate” value (E. coli 2678) was “R”, the “Drug sensitivity of the isolate” value (E. coli 2687) was “R” and the “Drug sensitivity of the isolate” value (S. aureus 1176) was “S”. The “Drug sensitivity of the isolate” value (S. aureus 9124) was “S”, the “Drug sensitivity of the isolate” value (S. aureus 4188) was “S” and the “Drug sensitivity of the isolate” value (E. faecium 898) was “R”. For the same molecule, the “Drug sensitivity of the isolate” value (A. baumannii 13012) was “R”, the “Drug sensitivity of the isolate” value (A. baumannii 13079) was “R” and the “Drug sensitivity of the isolate” value (A. baumannii 906) was “R”. For the same molecule, the “Drug sensitivity of the isolate” value (A. baumannii 9068) was “R”, the “Drug sensitivity of the isolate” value (S. epidermidis 888) was “R” and the “Drug sensitivity of the isolate” value (S. epidermidis 9092) was “R”. For the same molecule, the “Drug sensitivity of the isolate” value (S. epidermidis 6943) was “I”.
C[C@@H](O)[C@H]1C(=O)N2C(C(=O)O)=C(S[C@@H]3CN[C@H](C(=O)N(C)C)C3)[C@H](C)[C@H]12 [Meropenem] was tested, and the “Drug sensitivity of the isolate” value (P. aeruginosa 9042) was “R”, the “Drug sensitivity of the isolate” value (P. aeruginosa 9014) was “I” and the “Drug sensitivity of the isolate” value (K. pneumoniae 9126) was “S”. For the same molecule, the “Drug sensitivity of the isolate” value (E. coli 2678) was “S”, the “Drug sensitivity of the isolate” value (E. coli 2687) was “S” and the “Drug sensitivity of the isolate” value (A. baumannii 13012) was “R”. The “Drug sensitivity of the isolate” value (A. baumannii 13079) was “R”, the “Drug sensitivity of the isolate” value (A. baumannii 906) was “R” and the “Drug sensitivity of the isolate” value (A. baumannii 9068) was “R”.
In the case of Cc1onc(-c2ccccc2)c1C(=O)N[C@@H]1C(=O)N2[C@@H]1SC(C)(C)[C@@H]2C(=O)O [Oxazocilline], the “Drug sensitivity of the isolate” value (S. aureus 1176) is reported as “S”, the “Drug sensitivity of the isolate” value (S. aureus 9124) is reported as “R” and the “Drug sensitivity of the isolate” value (S. aureus 4188) is reported as “S”. For the same molecule, the “Drug sensitivity of the isolate” value (S. epidermidis 888) was “S”, the “Drug sensitivity of the isolate” value (S. epidermidis 9092) was “R” and the “Drug sensitivity of the isolate” value (S. epidermidis 6943) was “R”.
In the case of CN(C)[C@@H]1C(O)=C(C(N)=O)C(=O)[C@@]2(O)C(O)=C3C(=O)c4c(O)cccc4[C@@](C)(O)[C@H]3C[C@@H]12 [Tetracycline], the “Drug sensitivity of the isolate” value (S. aureus 1176) is reported as “S”, the “Drug sensitivity of the isolate” value (S. aureus 9124) is reported as “R” and the “Drug sensitivity of the isolate” value (S. aureus 4188) is reported as “S”. The “Drug sensitivity of the isolate” value (E. faecium 898) was “R”, the “Drug sensitivity of the isolate” value (S. epidermidis 888) was “R” and the “Drug sensitivity of the isolate” value (S. epidermidis 9092) was “R”. For the same molecule, the “Drug sensitivity of the isolate” value (S. epidermidis 6943) was “S”.
With Piperacillin/tazobactam the “Drug sensitivity of the isolate” value (P. aeruginosa 9042) was “S”, the “Drug sensitivity of the isolate” value (P. aeruginosa 9014) was “R” and the “Drug sensitivity of the isolate” value (K. pneumoniae 9126) was “S”. For the same molecule, the “Drug sensitivity of the isolate” value (E. coli 2678) was “S”, the “Drug sensitivity of the isolate” value (E. coli 2687) was “S” and the “Drug sensitivity of the isolate” value (A. baumannii 13012) was “R”. For the same molecule, the “Drug sensitivity of the isolate” value (A. baumannii 13079) was “R”, the “Drug sensitivity of the isolate” value (A. baumannii 906) was “R” and the “Drug sensitivity of the isolate” value (A. baumannii 9068) was “R”.
For Ticarcillin/clavulanic acid, the “Drug sensitivity of the isolate” value (P. aeruginosa 9042) was “R”, the “Drug sensitivity of the isolate” value (P. aeruginosa 9014) was “R” and the “Drug sensitivity of the isolate” value (K. pneumoniae 9126) was “S”. The “Drug sensitivity of the isolate” value (E. coli 2678) was “S”, the “Drug sensitivity of the isolate” value (A. baumannii 13012) was “R” and the “Drug sensitivity of the isolate” value (A. baumannii 13079) was “R”. For the same molecule, the “Drug sensitivity of the isolate” value (A. baumannii 906) was “R” and the “Drug sensitivity of the isolate” value (A. baumannii 9068) was “R”.
